Laboratory results from PubChem BioAssay (NCI).
Several values for one entry are separate records, joined by “and”; a condition that tells them apart may be missing. Equal values may be shown once.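 Protocol summary: plate cells (96-well), add compound at 5 concentrations, incubate 48 h, interpolate endpoints linearly. Here, GI50 denotes the concentration required for 50% inhibition of growth. At the TGI there is no net growth.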

Assays:
Experiment in all cases: NCI anticancer screen, dose series, 48 h
SF-268 CNS = test system: SF-268 CNS
T-47D breast = test system: T-47D breast
HOP-62 NSCLC = test system: HOP-62 NSCLC
MCF7 breast = test system: MCF7 breast
NCI-H522 lung = test system: NCI-H522 lung
RXF 393 renal = test system: RXF 393 renal
SK-MEL-2 melanoma = test system: SK-MEL-2 melanoma
IGROV1 ovarian = test system: IGROV1 ovarian
HOP-92 NSCLC = test system: HOP-92 NSCLC
KM12 colon = test system: KM12 colon
CAKI-1 renal = test system: CAKI-1 renal
MDA-MB-435 = test system: MDA-MB-435
TK-10 renal = test system: TK-10 renal
HCC-2998 colon = test system: HCC-2998 colon
HL-60(TB) leukemia = test system: HL-60(TB) leukemia

SMILES | TGI (SF-268 CNS) | TGI (T-47D breast) | TGI (HOP-62 NSCLC) | TGI (MCF7 breast) | TGI (NCI-H522 lung) | TGI (RXF 393 renal) | TGI (SK-MEL-2 melanoma) | TGI (IGROV1 ovarian) | TGI (HOP-92 NSCLC) | TGI (KM12 colon) | TGI (CAKI-1 renal) | TGI (MDA-MB-435) | TGI (TK-10 renal) | TGI (HCC-2998 colon) | TGI (HL-60(TB) leukemia) | GI50 (HOP-62 NSCLC) | GI50 (RXF 393 renal)
COCCCNC(=O)C1=C(C)NC(C)=C(C(=O)NCCCOC)C1 | > 100 µM | > 100 µM | > 100 µM | > 100 µM | 27.4 µM | > 100 µM | > 100 µM | 26.9 µM | > 100 µM | > 100 µM | > 100 µM | > 100 µM | > 100 µM | > 100 µM | > 100 µM | – | –
Cc1ccc(Nc2c(C#N)[n+]([O-])c3cc(Cl)ccc3[n+]2[O-])cc1 | > 100 µM | > 100 µM | > 100 µM | > 100 µM | > 74.8 µM | > 100 µM | > 100 µM | > 100 µM | > 100 µM | > 100 µM | > 100 µM | > 100 µM | > 100 µM | > 100 µM | 21.1 µM | – | –
CCC[C@H](NS(=O)c1ccc(C)cc1)C(C(=O)OCC)=C(c1ccccc1)c1ccccc1 (some centres not stated) | > 100 µM | 88.6 µM | 36.4 µM | 43.2 µM | 55.1 µM | 29.6 µM | 31.7 µM | 75.8 µM | 33 µM | 37.8 µM | 35.6 µM | 35 µM | 97 µM | 15.3 µM | > 100 µM | – | –
CC(C)NC(=O)OCc1c(COC(=O)NC(C)C)c(-c2cc[n+](COC(=O)C(C)(C)C)cc2)n2c1CCC2 | > 100 µM | > 100 µM | > 100 µM | > 100 µM | > 100 µM | > 100 µM | > 100 µM | > 100 µM | > 100 µM | > 100 µM | > 100 µM | > 100 µM | > 100 µM | > 100 µM | > 100 µM | – | –
COC(=O)C1OC(O[C@H]2CC[C@]3(C)[C@H]4CC=C5[C@@H]6CC(C)(C)CC[C@]6(C(=O)OC6OCC(O)C(O)C6OC6OC(C)C(OC7OCC(O)C(OC8OCC(O)C(O)C8O)C7O)C(OC7OCC(O)C(O)C7O)C6O)CC[C@@]5(C)[C@]4(C)CC[C@H]3C2(C)C)C(O)C(OC2OCC(O)C(O)C2O)C1O (some centres not stated) | > 76.2 µM and 19.9 µM | 42.3 µM and 19.2 µM | 17.8 µM and 23.7 µM | > 84.5 µM and 20.9 µM | 5.32 µM and 5.78 µM | > 67 µM and 35.6 µM | 9.16 µM and 7.73 µM | > 100 µM and 24.9 µM | 5.25 µM and 7.62 µM | 10.7 µM and 10.8 µM | 35.4 µM and 17.9 µM | 4.13 µM and 4.42 µM | 70.4 µM and 24.4 µM | 3.13 µM and 3.37 µM | 4.36 µM and 5.23 µM | 4.76 µM and 10.9 µM | 6.36 µM and 13.7 µM
N/N=C(\C(=O)Nc1ccc(Cl)cc1Cl)C(c1cnc2ccccc2n1)[N+](=O)[O-] (configuration not stated) | > 100 µM | > 100 µM | > 100 µM | > 100 µM | > 100 µM | > 100 µM | > 100 µM | > 100 µM | > 100 µM | > 100 µM | > 100 µM | > 100 µM | > 100 µM | > 100 µM | > 100 µM | – | –
CN(C)P(=O)(Oc1ccc(CC(NC(=O)OCc2ccccc2)C(=O)OCc2ccccc2)cc1)N(C)C (configuration not stated) | 27.8 µM | 52.3 µM | 31.7 µM | 31.6 µM | 30.9 µM | 32.7 µM | 31.5 µM | 32.9 µM | 34.9 µM | 40.3 µM | 32.8 µM | 25.7 µM | 47 µM | 37.8 µM | 32.9 µM | – | –
COC(=O)C(=O)C(C(=O)C(=O)Nc1nc2ccc(C)cc2s1)c1nc2ccc([N+](=O)[O-])cc2[nH]c1=O (configuration not stated) | > 100 µM | > 100 µM | > 100 µM | > 100 µM | > 100 µM | > 100 µM | > 100 µM | > 100 µM | > 100 µM | > 100 µM | > 100 µM | > 100 µM | > 100 µM | > 100 µM | > 100 µM | – | –
O=C(c1ccccc1)c1ccc(-n2c3ccccc3c3ccc4c(c32)C(=O)C=CC4=O)cc1 | 26.3 µM | > 22.6 µM | 33.6 µM | 10 µM | 8.9 µM | 19.2 µM | 37.3 µM | 37.5 µM | 18.6 µM | 37.5 µM | 4.4 µM | 20.5 µM | 25.3 µM | 29.6 µM | 18.2 µM | – | –
N#Cc1ccccc1NC(=O)C(=O)c1c(O)c2ccccc2oc1=O | > 100 µM | > 100 µM | > 100 µM | > 100 µM | > 100 µM | > 100 µM | > 100 µM | > 100 µM | > 100 µM | > 100 µM | > 100 µM | > 100 µM | > 100 µM | > 100 µM | > 100 µM | – | –
COC(=O)/C=C1/CCC(C)(C(=O)NS(=O)(=O)c2ccc(C)cc2)C1(C)C (configuration not stated) | > 100 µM | > 100 µM | > 100 µM | > 100 µM | > 100 µM | > 100 µM | > 100 µM | > 100 µM | > 100 µM | > 100 µM | > 100 µM | > 100 µM | > 100 µM | > 100 µM | > 100 µM | – | –
